Measurements reported in US10266495B2, “Phenyl quinolinone derivatives as mutant-isocitrate dehydrogenase inhibitors” (FORMA TM2, Inc., priority 2014, dated 2019).

Experiments:
[1] = system: HCT116 isogenic IDH1-R132C mutant cells; test: Cellular 2-HG assay using HCT116 mutant IDH1 cells (R132C); type: cell-based; conditions: Homo sapiens, HCT-116; cellular 2-HG inhibition, 24 hours, RapidFire mass spectrometry; read-out: HCT116 IDH1 R132C IC50 Range
[2] = target: IDH1-R132C recombinant protein (Homo sapiens, UniProt O75874, R132C); test: IDH1-R132C enzymatic assay (NADPH consumption, diaphorase/resazurin readout); type: biochemical; conditions: read-out: Enzyme IDH1 R132C IC50 Range
Chain of IDH1-R132C recombinant protein (O75874 whole entry R132C): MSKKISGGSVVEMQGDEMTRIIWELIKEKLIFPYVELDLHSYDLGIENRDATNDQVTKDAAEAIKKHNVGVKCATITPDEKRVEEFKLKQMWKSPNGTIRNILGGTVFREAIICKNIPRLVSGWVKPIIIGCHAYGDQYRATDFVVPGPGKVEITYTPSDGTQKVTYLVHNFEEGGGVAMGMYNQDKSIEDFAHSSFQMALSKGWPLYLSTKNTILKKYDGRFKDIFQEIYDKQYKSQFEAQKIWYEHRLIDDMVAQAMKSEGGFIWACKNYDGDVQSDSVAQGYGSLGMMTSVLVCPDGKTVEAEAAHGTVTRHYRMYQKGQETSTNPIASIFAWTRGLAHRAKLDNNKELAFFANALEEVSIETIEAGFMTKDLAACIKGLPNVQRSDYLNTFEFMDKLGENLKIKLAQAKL
In short: (§1)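 Compound was preincubated 15 min at 25 °C with recombinant IDH1-R132H (30 nM) or IDH1-R132C (10 nM) enzyme solution in 50 mM Tris pH 7.5, 150 mM NaCl, 5 mM MgCl2, 0.1% BSA and 0.01% Triton X-100. A solution of 2 mM α-ketoglutarate and 20 μM NADPH was then added for 45 min at 25 °C. Remaining NADPH was read by diaphorase/resazurin, and IC50 came from a four-parameter logistic fit of NADPH-consumption inhibition.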

[3] = target: IDH1-R132H recombinant protein (Homo sapiens, UniProt O75874, R132H); test: IDH1-R132H enzymatic assay (NADPH consumption, diaphorase/resazurin readout); type: biochemical; conditions: read-out: Enzyme IDH1 R132H IC50 Range
Chain of IDH1-R132H recombinant protein (O75874 whole entry R132H): as the sequence (O75874 whole entry R132C) above, with C132H counted along it
In short: as §1

[4] = system: HCT116 isogenic IDH1-R132H mutant cells; test: Cellular 2-HG assay using HCT116 mutant IDH1 cells (R132H); type: cell-based; conditions: Homo sapiens, HCT-116; cellular 2-HG inhibition, 24 hours, RapidFire mass spectrometry; read-out: HCT116 IDH1 R132H IC50 Range

Row | Structure (SMILES) | IC50 [1] [µM] | IC50 [2] [µM] | IC50 [3] [µM] | IC50 [4] [µM]
1 | COc1cc(NCc2cc3cc(Cl)ccc3[nH]c2=O)ccc1C#N [Compound I-7, 4-{[(6-chloro-2-oxo-1,2-dihydroquinolin-3-yl)methyl]amino}-2-methoxybenzonitrile] | > 1 | > 1 | 0.1 to 1 | 0.1 to 1
2 | COc1cc(N[C@@H](C)c2cc3cc(Cl)ccc3[nH]c2=O)ccc1C#N [Compound I-2, 4-{[(1S)-1-(6-chloro-2-oxo-1,2-dihydroquinolin-3-yl)ethyl]amino}-2-methoxybenzonitrile] | 0.1 to 1 | 0.1 to 1 | 0.01 to 0.1 | < 0.01
3 | COc1cc(NCc2cc3cc(Cl)c(OCCN4CCCCC4)cc3[nH]c2=O)ccc1C#N [Compound I-87, 4-[({6-chloro-2-oxo-7-[2-(piperidin-1-yl)ethoxy]-1,2-dihydroquinolin-3-yl}methyl)amino]-2-methoxybenzonitrile] |  | > 1 | 0.01 to 0.1 | 
4 | COc1cc(NCc2cc3cc(Cl)c(OCCN4CCCC4)cc3[nH]c2=O)ccc1C#N [Compound I-85, 4-[({6-chloro-2-oxo-7-[2-(pyrrolidin-1-yl)ethoxy]-1,2-dihydroquinolin-3-yl}methyl)amino]-2-methoxybenzonitrile] |  | > 1 | 0.1 to 1 | 
